Measurements taken from ChEMBL document CHEMBL1129258, “Synthesis and structure-activity relationships of 2-pyridones: a novel series of potent DNA gyrase inhibitors as antibacterial agents” (J Med Chem, 1996).
Converted amounts (≈) assume the structure as drawn.

How the values were obtained:
Enterococcus faecalis = assay: Inhibitory activity against enterococcus faecalis Van B; format: functional
Escherichia coli = assay: In vivo efficacy against Escherichia coli JUHL by orally administered.; format: functional; details: po
[1] = biological target: T1, DNA gyrase (Escherichia coli) (UniProt P0AES6+P0AES4); assay: In vivo efficacy against Escherichia coli JUHL by subcutaneous administration; format: functional, organism-based; details: Escherichia coli K-12
[2] = biological target: T1, DNA gyrase (Escherichia coli); assay: In vitro antibacterial activity against gram-negative organism […] ATCC 13048; format: functional; details: Enterobacter aerogenes
Enterococcus faecium = assay: Inhibitory activity against enterococcus faecium Van A; format: functional
[3] = biological target: T1, DNA gyrase (Escherichia coli); assay: In vitro antibacterial against gram-negative organism Escherichia coli JUHL; format: functional; details: Escherichia coli K-12
[4] = biological target: T1, DNA gyrase (Escherichia coli); assay: In vitro antibacterial activity against gram-negative organism Klebsiella pneumoniae ATCC 8045; format: functional
[5] = In vivo efficacy against Pseudomonas aeruginosa 5007 after subcutaneous administration; format: functional
[6] = biological target: T1, DNA gyrase (Escherichia coli); assay: In vitro antibacterial activity against gram-negative organism Prov. stuartii CMX-640; format: functional; details: Providencia stuartii
[7] = In vitro antibacterial activity against gram-negative organism Pseudomonas aeruginosa 5007; format: functional
[8] = In vitro antibacterial activity against gram-negative organism Pseudomonas aeruginosa DPHD-2862; format: functional
[9] = biological target: T2, DNA gyrase (Staphylococcus aureus) (UniProt P0A0K8+P20831); assay: In vitro antibacterial activity against gram-positive organism Staphylococcus aureus 1775; format: functional
[10] = biological target: T2, DNA gyrase (Staphylococcus aureus); assay: In vitro antibacterial activity against gram-positive organism Staphylococcus aureus ATCC 6538p; format: functional
[11] = biological target: T2, DNA gyrase (Staphylococcus aureus); assay: In vitro antibacterial activity against gram-positive organism Staphylococcus aureus NCTC-10649M; format: functional
[12] = biological target: T1, DNA gyrase (Escherichia coli); assay: In vitro antibacterial activity against gram-positive organism Streptococcus bovis A-5169; format: functional; details: Streptococcus equinus
[13] = biological target: T2, DNA gyrase (Staphylococcus aureus); assay: In vivo efficacy against Staphylococcus aureus NCTC-10649M after oral administration; format: functional, organism-based
[14] = biological target: T2, DNA gyrase (Staphylococcus aureus); assay: In vivo efficacy against Staphylococcus aureus NCTC-10649M after subcutaneous administration; format: functional, organism-based
Streptococcus pyogenes = assay: In vitro antibacterial activity against gram-positive organism Streptococcus pyogenes EES61; format: functional
[15] = biological target: T1, DNA gyrase (Escherichia coli); assay: In vitro antibacterial activity against gram-positive organism Enterococcus faecium ATCC 8043; format: functional
[16] = biological target: T1, DNA gyrase (Escherichia coli); details: Escherichia coli K-12
Description: Concentration which causes 50% of the gyrase (Escherichia coli H560)-mediated maximal DNA cleavage.

Pseudomonas aeruginosa [17] = assay: In vivo efficacy against Pseudomonas aeruginosa 5007 following p.o. administration.
Pseudomonas aeruginosa [18] = assay: In vivo efficacy against Pseudomonas aeruginosa 5007 by orally administered.; format: functional
Streptococcus pneumoniae [19] = assay: In vivo efficacy against Strep. administered; format: functional
Streptococcus pneumoniae [20] = assay: (§1) In vivo efficacy against Strep. administration; format: functional
Streptococcus pneumoniae [21] = assay: as §1; format: functional; remark: listed apart in the source
[22] = Maximum plasma concentration in rats after an oral dose of 5 mg/kg; details: rat
in vivo [23] = details: rat, po, 5 mg/kg
Description: Oral bioavailability in rat (dose 5 mg/kg)

in vivo [24] = details: rat, plasma, po, 5 mg/kg
physchem = details: phosphate buffer, pH 7.4
Description: Aqueous solubility in pH 7.4 phosphate buffer (0.05 M) at 37 degree C

Streptococcus pneumoniae [25] = assay: as §1; format: functional; remark: listed apart in the source
[26] = biological target: T1, DNA gyrase (Escherichia coli); assay: In vivo efficacy against Escherichia coli JUHL after oral administration; format: functional, organism-based; details: Escherichia coli K-12
[27] = Pseudomonas aeruginosa, sc, read-out: ED50
[28] = Pseudomonas aeruginosa, read-out: MIC
[29] = Streptococcus pyogenes, read-out: MIC

SMILES	MIC (Enterococcus faecalis) [µg/mL]	ED50 [1] [mg/kg]	MIC [2] [µg/mL]	MIC (Enterococcus faecium) [µg/mL]	MIC [3] [µg/mL]	MIC [4] [µg/mL]	MIC [6] [µg/mL]	MIC [7, 28] [µg/mL]	MIC [8, 28] [µg/mL]	MIC [9] [µg/mL]	MIC [10] [µg/mL]	MIC [11] [µg/mL]	MIC [12] [µg/mL]	ED50 [13] [mg/kg]	ED50 [14] [mg/kg]	MIC (Streptococcus pyogenes; [29]) [µg/mL]	MIC [15] [µg/mL]	ED50 [5, 27] [mg/kg]	CC50 [16] [µg/mL]	ED50 (Streptococcus pneumoniae [20]) [mg/kg]	other results
Cc1c(N2C[C@@H]3CCN[C@@H]3C2)c(F)cn2c(=O)c(C(=O)O)cc(C3CC3)c12 (stereo in doubt; (S,S)45o)																				11.2	ED50 [5]: 18 mg/kg; ED50 (Pseudomonas aeruginosa [18]): >50 mg/kg; MIC [7]: 0.2 µg/mL (≈ 0.538 µM); MIC [8]: 3.1 µg/mL (≈ 8.35 µM); ED50 (Streptococcus pneumoniae [19]): 2.3 mg/kg
Cc1c(N2C[C@@H]3CCCN[C@@H]3C2)c(F)cn2c(=O)c(C(=O)O)cc(C3CC3)c12 (stereo in doubt; 45n)	0.06 (≈ 0.156 µM)			0.5 (≈ 1.3 µM)																12.5	MIC [8]: 3.1 µg/mL (≈ 8.04 µM); ED50 (Streptococcus pneumoniae [25]): 4.4 mg/kg; MIC (Streptococcus pyogenes): 0.01 µg/mL (≈ 0.0259 µM)
Cc1c(N2CC[C@H](N)C2)c(F)cn2c(=O)c(C(=O)O)cc(C3CC3)c12 [ABT-719]	0.03 (≈ 0.0869 µM)	0.1	0.005 (≈ 0.0145 µM)	0.25 (≈ 0.724 µM)	0.002 (≈ 0.00579 µM)	0.005 (≈ 0.0145 µM)	0.2 (≈ 0.579 µM)	0.05 (≈ 0.145 µM)	0.78 (≈ 2.26 µM)	0.78 (≈ 2.26 µM)	0.01 (≈ 0.029 µM)	0.01 (≈ 0.029 µM)	0.02 (≈ 0.0579 µM)	3.4	0.6	0.02 (≈ 0.0579 µM)	0.02 (≈ 0.0579 µM)	1.9	0.03 (≈ 0.0869 µM)		Cmax [22]: 270 ng/mL; ED50 [26]: 0.6 mg/kg; ED50 (Streptococcus pneumoniae [25]): 1.6 mg/kg; ED50 (Streptococcus pneumoniae [20]; Streptococcus pneumoniae, read-out: ED50): 5.3 mg/kg; bioavailability (in vivo [23]): 32%; half-life (in vivo [24]): 1.2 h; ED50 (Pseudomonas aeruginosa [17]): 14.5 mg/kg
Cc1c(N2C[C@@H](N)[C@@H](C)C2)c(F)cn2c(=O)c(C(=O)O)cc(C3CC3)c12			0.02 (≈ 0.0556 µM)		0.005 (≈ 0.0139 µM)	0.005 (≈ 0.0139 µM)	0.78 (≈ 2.17 µM)	0.1 (≈ 0.278 µM)	1.56 (≈ 4.34 µM)	0.78 (≈ 2.17 µM)	0.02 (≈ 0.0556 µM)	0.02 (≈ 0.0556 µM)	0.02 (≈ 0.0556 µM)			0.05 (≈ 0.139 µM)	0.05 (≈ 0.139 µM)		0.06 (≈ 0.167 µM)		Cmax [22]: 170 ng/mL; bioavailability (in vivo [23]): 23%; half-life (in vivo [24]): 2.1 h

Further lines, with some results ahead:

MIC (Enterococcus faecalis) [µg/mL]	ED50 [1] [mg/kg]	MIC [2] [µg/mL]	MIC (Enterococcus faecium) [µg/mL]	MIC [3] [µg/mL]	MIC [4] [µg/mL]	MIC [6] [µg/mL]	MIC [7, 28] [µg/mL]	MIC [8, 28] [µg/mL]	MIC [9] [µg/mL]	MIC [10] [µg/mL]	MIC [11] [µg/mL]	MIC [12] [µg/mL]	ED50 [13] [mg/kg]	ED50 [14] [mg/kg]	MIC (Streptococcus pyogenes; [29]) [µg/mL]	MIC [15] [µg/mL]	SMILES	ED50 [5, 27] [mg/kg]	CC50 [16] [µg/mL]	ED50 (Streptococcus pneumoniae [20]) [mg/kg]	other results
0.06 (≈ 0.167 µM)	0.7	0.02 (≈ 0.0556 µM)	0.5 (≈ 1.39 µM)	0.005 (≈ 0.0139 µM)	0.005 (≈ 0.0139 µM)	0.39 (≈ 1.09 µM)	0.2 (≈ 0.556 µM)	1.56 (≈ 4.34 µM)	1.56 (≈ 4.34 µM)	0.02 (≈ 0.0556 µM)	0.02 (≈ 0.0556 µM)	0.1 (≈ 0.278 µM)	< 3.1	0.9	0.05 (≈ 0.139 µM)	0.1 (≈ 0.278 µM)	CNC1CCN(c2c(F)cn3c(=O)c(C(=O)O)cc(C4CC4)c3c2C)C1 (stereo not drawn)	2.8	0.08 (≈ 0.223 µM)		ED50 (Escherichia coli): 1.1 mg/kg; ED50 (Pseudomonas aeruginosa [17]): 7.2 mg/kg
0.12 (≈ 0.321 µM)	1.9	0.1 (≈ 0.268 µM)	1 (≈ 2.68 µM)	0.02 (≈ 0.0536 µM)	0.02 (≈ 0.0536 µM)	3.1 (≈ 8.3 µM)	0.39 (≈ 1.04 µM)	12.5 (≈ 33.5 µM)	0.78 (≈ 2.09 µM)	0.05 (≈ 0.134 µM)	0.05 (≈ 0.134 µM)	0.39 (≈ 1.04 µM)	25	4.7	0.1 (≈ 0.268 µM)	0.1 (≈ 0.268 µM)	Cc1c(N2CCC(N(C)C)C2)c(F)cn2c(=O)c(C(=O)O)cc(C3CC3)c12 (stereo not drawn)			44.1	ED50 (Escherichia coli): > 10 mg/kg; ED50 (Streptococcus pneumoniae [21]): > 25 mg/kg
		0.05 (≈ 0.139 µM)		0.005 (≈ 0.0139 µM)	0.01 (≈ 0.0278 µM)	0.78 (≈ 2.17 µM)	0.2 (≈ 0.556 µM)	3.1 (≈ 8.63 µM)	1.56 (≈ 4.34 µM)	0.01 (≈ 0.0278 µM)	0.01 (≈ 0.0278 µM)	0.05 (≈ 0.139 µM)			0.05 (≈ 0.139 µM)	0.1 (≈ 0.278 µM)	Cc1c(N2C[C@@H](N)C[C@@H]2C)c(F)cn2c(=O)c(C(=O)O)cc(C3CC3)c12		0.2 (≈ 0.556 µM)		Cmax [22]: 740 ng/mL; bioavailability (in vivo [23]): 44%; half-life (in vivo [24]): 1.6 h; solubility (physchem): 70 µg/mL (≈ 195 µM)
	1	0.1 (≈ 0.273 µM)		0.05 (≈ 0.137 µM)	0.05 (≈ 0.137 µM)	3.1 (≈ 8.47 µM)	0.39 (≈ 1.07 µM)	6.2 (≈ 16.9 µM)	6.2 (≈ 16.9 µM)	0.2 (≈ 0.547 µM)	0.2 (≈ 0.547 µM)	0.78 (≈ 2.13 µM)	5.7	1.6	0.39 (≈ 1.07 µM)	0.39 (≈ 1.07 µM)	NC1CCN(c2c(F)cn3c(=O)c(C(=O)O)cc(C4CC4)c3c2Cl)C1 (stereo not drawn)	3.3	0.31 (≈ 0.847 µM)	11.1	ED50 [26]: 5.6 mg/kg; ED50 (Streptococcus pneumoniae [21]): 8.5 mg/kg; ED50 (Pseudomonas aeruginosa [17]): 17 mg/kg
